Values quoted from earlier work, collected in patent publication US7858570B2, “Compositions and methods for removing urushiol and treating the resulting skin condition” (priority 2004, dated 2010).
Values belong to the compound of their own block, whether it stands above or below them.

How the values were obtained:
[1] = system: human immuno deficiency virus; settings: in the test tube
[2] = for cloud point: 1% H2O
[3] = in vivo

solubility in water (at 25° C.): 0.5%
solubility (in words) (water and alcohol): soluble in water and alcohol
Compound: NC(=O)NC1NC(=O)NC1=O (centres unmarked) [allantoin, glyoxyl-diureide]

Compound: CCCCCCCCCc1ccc(OCCOCCOCCOCCOCCOCCOCCOCCOCCO)cc1 [nonoxynol-9, nonylphenoxypolyethoxyethanol]
concentration in a solution that stops HIV from reproducing [1]: 0.05%

Compound: nonylphenol ethoxylate [2 mol nonylphenol ethoxylate]
cloud point [2]: less than 25 °C

Compound: nonylphenol ethoxylate [4 mol nonylphenol ethoxylate]
cloud point [2]: less than 25 °C

Compound: nonylphenol ethoxylate [5 mol nonylphenol ethoxylate]
cloud point [2]: less than 25 °C

Compound: nonylphenol ethoxylate [6 mol nonylphenol ethoxylate]
cloud point [2]: less than 25 °C

Compound: nonylphenol ethoxylate [8 mol nonylphenol ethoxylate]
cloud point [2]: less than 25 °C

Compound: nonylphenol ethoxylate [10 mol nonylphenol ethoxylate]
pH ([2]; 10% sol.): 6.3

Compound: nonylphenol ethoxylate [12 mol nonylphenol ethoxylate]
cloud point [2]: 78-83 °C

Compound: nonylphenol ethoxylate [14 mol nonylphenol ethoxylate]
cloud point [2]: 92-99 °C

Compound: nonylphenol ethoxylate [30 mol nonylphenol ethoxylate]
cloud point [2]: greater than 100 °C

Compound: nonylphenol ethoxylate [50 mol nonylphenol ethoxylate]
cloud point [2]: greater than 100 °C

Compound: urushiol
time from skin exposure until rash breaks out [3]: 24 to 72 h
